Assay results published in patent publication EP4608400B1, “COMPOUND FOR TREATMENT OF PAIN” (Initiator Pharma A/S, priority 2022, dated 2024).
Where two headings read alike, the source gives them in different places.

Columns and labels:
CCI rats = assay: Rat chronic constriction injury (CCI) model of neuropathic pain; type: in vivo, Sprague-Dawley rats; conditions: for paw withdrawal duration (pin prick) / weight bearing difference / paw withdrawal threshold (von Frey stimulation): 60 min prior; for paw withdrawal duration (pin prick): vehicle about 14.9 s; for weight bearing difference: vehicle about 51 %; for paw withdrawal threshold (von Frey stimulation): vehicle around 1.1 g
Experimental: All treatments were administered s.c. in a dosing volume of 2 ml/kg 60 min prior to behavioural assessment.
Adult male Sprague-Dawley rats (Harlan Scandinavia, Alleroed, Denmark) were used. They were housed in Macrolon III cages (20 x 14 x 18 cm or 20 x 40 x18 cm; in groups of 2-5 per cage according to weight) containing wood-chip bedding material (3 x 1 x 4 mm). The environment was temperature (20 ± 2°C) and humidity (55 ± 15%) controlled and consisted of a light-dark cycle of 13:11 h (lights on at 06.00 h and off at 19.00 h). Food (Altromin®) and water were available ad libitum. The rats were allowed to habituate to the housing facilities for at least one week prior to being randomly assigned to behavioural experiments. All experiments were performed according to the Ethical Guidelines of the International Association for the Study of Pain (Zimmermann, 1983) and the Danish Committee for Experiments on Animals.
All drug testing in CCI rats was performed blinded by the observer. A 2-3 day drug washout period was allowed, and the studies were conducted between 4-5 weeks after surgery. CCI rats used in this study had also been previously enrolled in similar experiments assessing the efficacy of other compound(s). Only those animals with distinct neuropathic behavior (von Frey response <4 g, pin prick response >10 s) were included in the study. Table C: Experimental groups
Chronic constriction injury procedure. A chronic constriction injury (CCI) was performed in rats (body weight 180-220 g at the time of surgery) under isoflurane anaesthesia as described previously (Bennett and Xie, 1988). The sciatic nerve was exposed at the mid-thigh level proximal to the sciatic trifurcation. Four chromic gut ligatures (4/0) (Ethicon, New Brunswick, NJ) were tied loosely around the nerve, 1-2 mm apart, such that the vascular supply was not compromised. The overlying muscle was closed in layers with 4/0 synthetic absorbable surgical suture. The skin was closed and sutured with 4/0 silk thread.
Behavioural testing of nerve-injured rats. Nerve-injured rats were routinely tested for the presence of pain-like behaviours for up to 5 weeks after surgery, according to previously described methods (Munro et al., 2008). For testing of mechanical hypersensitivity individual rats were removed from their home cage and allowed to habituate for 15 min in a 15 x 20 cm white Plexiglas testing cage, placed upon an elevated metal grid allowing access to the plantar surface of the injured hindpaw. The presence of mechanical allodynia was assessed using a series of calibrated von Frey hairs (lower limit=0.065 and upper limit=19.3 g, Stoelting Co, Wood Dale IL), which were applied to the plantar surface of the hindpaw with increasing force until an individual filament used just started to bend. The filament was applied for a period of 1-2 s and was repeated 5 times at 1-2 s intervals. The filament that induced a reflex paw withdrawal in 3 out of 5 applications was considered to represent the threshold level for a response to occur. The presence of mechanical hyperalgesia was determined by pressing the plantar surface of the hindpaw with the point of a safety pin, at an intensity sufficient to produce a reflex withdrawal response in normal unoperated animals, but at an intensity which was insufficient to penetrate the skin. A cut-off time of 15 s was applied to long withdrawals often seen for the nerve-injured paw.
Changes in hindpaw weight bearing were assessed using an incapacitance tester (Linton Instrumentation, U.K.), which incorporates a dual channel scale used to separately assess the weight distributed to each hindpaw of the rat. Normally, uninjured rats distribute their weight evenly between the two hindpaws (50:50). However, after tissue injury the rat preferentially favours the non-injured hindpaw, such that the weight bearing difference can be used as an index of spontaneous nociception. […]

[1] = Phase I ascending single oral dose study: pharmacokinetics; type: in vivo, human; conditions: for Tmax / half-life: human, in vivo, po; for Tmax: single oral dose, postdose
Experimental: Study design. The study was a Phase I, randomised, double-blind, placebo-controlled, ascending single oral dose, safety, tolerability, pharmacokinetic (PK) and pharmacodynamics (PD) study of IP2015 in healthy male subjects.
Each subject received one oral dose of IP2015 or matched placebo. […] The dose level was to be escalated to a maximum of 0.05 mg in Cohort 2 and a maximum of 0.2 mg in Cohort 3. The doses in the remaining five cohorts were to be determined based on the dose escalation criteria.
Subjects were required to attend the clinical research unit (CRU) for a screening visit within 28 days prior to dosing. […] All subjects remained in the CRU until Day 3 (48 hours postdose) for the collection of safety assessments, PK blood and urine samples, and CNS assessments.
Study Drug, Dose and Mode of Administration. IP2015 and matched placebo were provided as a powder in bottles for oral solution. […] Reconstitution was performed by a pharmacist at the clinical site prior to dosing.
The dose was taken with 240 mL of water at room temperature. Subjects/participants were fasted overnight prior to dosing until 4 hours postdose. Water was allowed ad libitum except for 1 hour before and 1 hour after dosing.
The doses used in each cohort were as follows: • Cohort 1 - 0.01 mg • Cohort 2 - 0.05 mg • Cohort 3 - 0.2 mg • Cohort 4 - 0.6 mg • Cohort 5 - 1.8 mg • Cohort 6 - 5.4 mg • Cohort 7 - 16.2 mg • Cohort 8 - 10 mg
The study also evaluated plasma PK concentrations and parameters including but not limited to: area under the plasma concentration vs time curve (AUC), from time zero to the last quantifiable concentration (AUC0-t), AUC from zero to infinity (AUC0-∞), observed maximum plasma concentration (Cmax), time to reach maximum plasma concentration (tmax) and terminal elimination half-life (T1/2) in healthy male subjects.
Statistical methods. Safety parameters were listed and summarised using descriptive statistics. Pharmacokinetic parameter estimates were calculated using noncompartmental methods. Pharmacokinetic data were listed for each subject/patient and summarised by descriptive statistics.
Dose proportionality was analysed for Part A with a linear regression model using the logarithm of a PK parameter as responsible variable and the logarithm of the dose as the independent variable. The linear regression model can be expressed as: Log(yi) = α + β*log dosei + εi [formula] where α is the intercept, dosei is the actual dose of IP2015 for the ith subject and εi is the (within subject) random error in observing yi.
The above model was applied to the following PK parameters; AUC0-t, AUC0-∞ and Cmax. Based on the linear regression model, the dose proportionality coefficient (slope) and its two-sided 90% confidence interval (CI) were estimated. Dose proportionality was declared if the 90% CI for the slope was completely contained in the following range16: 1+log(0.5)/log(r), 1+log(2)/log(r), where r is the high dose/low dose.

## COc1cc2ccc(O[C@@H]3C[C@H]4CC[C@@H](C3)N4)cc2oc1=O [IP2015, exo-7-[(8-azabicyclo[3.2.1]octan-3-yl)oxy]-3-methoxy-chromen-2-one]
CCI rats; 3 mg/kg s.c.
  paw withdrawal duration (pin prick): about 12.3 s
  weight bearing difference: about 17%
  paw withdrawal threshold (von Frey stimulation): about 5.7 g
CCI rats; 10 mg/kg s.c.
  paw withdrawal duration (pin prick): about 11.1 s
  weight bearing difference: about 11%
  paw withdrawal threshold (von Frey stimulation): about 3.6 g
CCI rats; 3, 10 mg/kg s.c., CCI rats
  CCI induced weight bearing deficits (overall effect): robust dose-dependent reversal
  hindpaw withdrawal threshold to mechanical von Frey stimulation (overall effect): small but significant increase
CCI rats; 10 and especially 30 mg/kg s.c.
  behavioural observation in CCI rats: extremely alert, and possibly displayed signs of anxiogenic behaviour
[1]; 0.01 mg and 0.05 mg single oral dose, all subjects
  Plasma concentrations of IP2015: below the LLOQ
[1]; 0.2 mg single oral dose
  subjects with plasma concentrations below the LLOQ: 3/7
[1]; read-out: tmax (range across all dose levels)
  Tmax: 1 to 6 h
[1]; range of medians across doses, read-out: Median tmax
  Tmax: 2.25 to 5 h
[1]; 0.6 mg, calculated for 1/6 subjects, read-out: mean t½ (converted)
  half-life: 14.5 h
[1]; 1.8 mg, calculated for 3/6 subjects, read-out: mean t½ (converted)
  half-life: 16.1 h
[1]; 5.4 mg to 16.2 mg doses, range of means, read-out: mean T½
  half-life: 23.1 to 26.3 h
